Like-named read-outs stand apart in the source and are kept apart here. Some results are limits rather than exact numbers.

The test system of assay [1] is HepG2 cells. Put plainly: Test Example 2: inhibition of apolipoprotein B secretion from HepG2 cells, ELISA (also used for metabolites in Test Example 8). As to conditions: Homo sapiens. The class given is cell-based. An outline of the steps: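 HepG2 cells cultured 24 h, then exposed 24 h to compounds or metabolites in medium with 0.5% DMSO. Secreted apo B in supernatant quantified by sandwich ELISA (HRP, ABTS, 405 nm) against purified human apo B standard; % inhibition vs DMSO group, IC50 derived.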

Assay [2] has as its target T1, Microsomal triglyceride transfer protein (MTP) from bovine liver (Bos taurus, UniProt P55156).
T1 construct: from tissue; host or cells: bovine liver
T1 sequence (P55156 12-887): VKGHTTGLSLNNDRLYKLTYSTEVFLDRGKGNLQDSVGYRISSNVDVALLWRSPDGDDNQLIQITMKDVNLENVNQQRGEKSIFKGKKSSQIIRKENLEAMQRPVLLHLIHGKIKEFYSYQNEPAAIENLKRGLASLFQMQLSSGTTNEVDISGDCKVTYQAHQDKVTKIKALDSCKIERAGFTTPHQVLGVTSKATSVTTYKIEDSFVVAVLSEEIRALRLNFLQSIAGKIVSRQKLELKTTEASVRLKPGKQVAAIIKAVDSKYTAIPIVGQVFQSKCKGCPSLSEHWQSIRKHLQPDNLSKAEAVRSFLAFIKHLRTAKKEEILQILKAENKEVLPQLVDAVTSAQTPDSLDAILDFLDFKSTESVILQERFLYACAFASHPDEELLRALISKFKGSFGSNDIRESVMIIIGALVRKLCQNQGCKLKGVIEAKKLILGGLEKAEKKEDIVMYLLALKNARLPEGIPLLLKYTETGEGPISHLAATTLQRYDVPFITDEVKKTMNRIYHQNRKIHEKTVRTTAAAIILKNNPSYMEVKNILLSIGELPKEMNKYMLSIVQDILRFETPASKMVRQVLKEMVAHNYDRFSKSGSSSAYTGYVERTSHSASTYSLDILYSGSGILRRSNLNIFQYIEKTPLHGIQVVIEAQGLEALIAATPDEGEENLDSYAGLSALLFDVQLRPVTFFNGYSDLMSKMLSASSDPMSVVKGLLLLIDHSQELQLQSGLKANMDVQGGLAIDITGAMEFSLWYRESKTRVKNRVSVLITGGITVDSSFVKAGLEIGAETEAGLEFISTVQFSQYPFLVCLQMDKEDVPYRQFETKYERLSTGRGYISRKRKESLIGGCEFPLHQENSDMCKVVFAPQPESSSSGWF
T1 sequence (P05307 21-510 partner): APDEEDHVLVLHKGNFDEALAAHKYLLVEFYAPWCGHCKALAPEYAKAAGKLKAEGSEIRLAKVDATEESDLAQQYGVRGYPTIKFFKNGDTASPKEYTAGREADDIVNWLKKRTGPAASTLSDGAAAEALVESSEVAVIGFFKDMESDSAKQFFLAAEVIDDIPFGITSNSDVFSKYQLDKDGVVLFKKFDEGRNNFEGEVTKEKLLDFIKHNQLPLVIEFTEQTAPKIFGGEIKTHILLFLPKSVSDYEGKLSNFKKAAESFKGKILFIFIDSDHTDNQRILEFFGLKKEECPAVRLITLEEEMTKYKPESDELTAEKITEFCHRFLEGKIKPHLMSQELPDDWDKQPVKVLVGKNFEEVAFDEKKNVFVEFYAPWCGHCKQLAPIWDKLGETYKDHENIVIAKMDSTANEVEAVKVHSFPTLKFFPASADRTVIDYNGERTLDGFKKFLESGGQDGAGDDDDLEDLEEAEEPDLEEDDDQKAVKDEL
The experiment in a line: Test Example 1: inhibition of interliposomal triglyceride (TG) transfer activity by MTP (also used for metabolites in Test Example 8). The class given is biochemical. The procedure:
Inhibition of Interliposomal Triglyceride (TG) Transfer Activity by MTP
Microsomal triglyceride transfer protein (MTP) from bovine liver was partially purified in such a way described below. A buffer (50 mM Tris, 250 mM sucrose, 1 mM EDTA, 0.02% NaN3 (pH 7.4)) for making a homogenate preparation was added to bovine liver, and the mixture was homogenated under ice-cooling, then centrifuged at 10,000×g (4° C., 30 minutes). The supernatant was adjusted to pH 5.1 with hydrochloric acid, and stirred for 30 minutes. The solution was further centrifuged at 10,000×g (4° C., 30 minutes), and 1 mM Tris buffer was added to the precipitated residue, and the mixture was adjusted to pH 8.6 with sodium hydroxide. After addition of 2.7M ammonium sulfate solution, the mixture was stirred for 30 minutes, then centrifuged at 10,000×g (4° C., 40 minutes). The resulting supernatant was served as a crude extraction fraction of MTP and stored at −80° C. under freezing. In its practical use, the crude extraction fraction of MTP was purified by column chromatography on diethylaminoethyl (DEAE) Sepharose using FPLC (Fast Performance Liquid Chromatography) system, and the purified MTP was used for the test.
Small unilamellar-vesicle (SUV) liposome (donor, 0.25 mol % triolein, 5 mol % cardiolipin) labeled with ^14C-triolein and non-labeled SUV liposome (acceptor, 0.25 mol % triolein) were prepared. A fixed amount of donor and acceptor, and MTP were mixed with a sample dissolved in DMSO or with DMSO. The mixture was incubated in a 15 mM Tris hydrochloride buffer (pH 7.4) containing 40 mM sodium chloride, 1 mM EDTA (ethylenediaminetetraacetic acid), 0.02% NaN3 and 0.5% bovine serum albumin at 37° C. for one hour. After completion of the incubation, a suspension of DEAE cellulose (50% v/v) in 15 mM Tris hydrochloride buffer (pH 7.4) was added to the above solution, and the mixture was centrifuged to separate the donor and the acceptor. The radioactivity in the acceptor was measured by liquid scintillation counter. The value obtained by subtracting the radioactivity in the blank from the amount of radioactivity in the acceptor of a DMSO group was determined as MTP-mediated TG transfer activity, and it was compared with the value obtained by subtracting the radioactivity in the blank from the radioactivity in a sample group. The blank was prepared by adding 15 mM Tris-HCl buffer (pH 7.4) in place of MTP. Inhibition rate (%) was calculated from the values obtained according to the following equation.
Inhibition rate (%)=100×(1 minus ((radioactivity of sample group minus radioactivity of blank group)/(radioactivity of DMSO group minus radioactivity of blank group))).
50% Inhibition rate (IC50) was determined on the basis of the above equation.
Inhibitory Activity on MTP and apo B Secretion Inhibition by Metabolites
In a similar manner to Test Examples 1 and 2, the activity of metabolites was assayed.

Setting [3] is: 24 hours, apo B in supernatant by ELISA, read-out: Test Example 2 Inhibition of apo B secretion IC50.
[4] abbreviates: MTP-mediated 14C-triolein transfer between liposomes, 37° C., one hour, read-out: Test Example 1 MTP inhibition IC50.

Turning to `CCOC(=O)C(CCOC(=O)c1ccc(NC(=O)c2ccccc2-c2ccc(C(F)(F)F)cc2)cc1Cl)(C(=O)OCC)c1ccccc1` [Example 6-16], the figures for the IC50 in assay [1] (setting [3]) and in assay [2] (setting [4]) were 170 nM and 2.9 nM, respectively.
In the same order, the values of `CCOC(=O)C(CCOC(=O)c1ccc(OC(=O)c2ccccc2-c2ccc(C(F)(F)F)cc2)cc1)(C(=O)OCC)c1ccccc1` [Example 6-17] are 420 nM and 2.3 nM.
In the same order, the values of `CCOC(=O)C(COC(=O)Cn1c(C)nc2c(NC(=O)c3ccccc3-c3ccc(C(F)(F)F)cc3)cccc21)(C(=O)OCC)c1ccccc1` [Example 9-2, 2-(2-{2-methyl-4-[(4′-trifluoromethylbiphenyl-2-carbonyl}amino]benzimidazol-1-yl}acetoxymethyl)-2-phenyl-malonic acid diethyl ester] are 450 nM and 4.2 nM.
Regarding `CC(C)NC(=O)C(COC(=O)Cc1ccc(NC(=O)c2ccccc2-c2ccc(C(F)(F)F)cc2)cc1)(C(=O)NC(C)C)c1ccccc1` [Example 1-25], the values for the IC50 in assay [1] (setting [3]) and in assay [2] (setting [4]) were 8.4 nM and 5 nM, respectively.
In the same order, the values of `O=C(OCCC(C(=O)NCC(F)(F)F)c1ccccc1)c1ccc(NC(=O)c2ccccc2-c2ccc(C(F)(F)F)cc2)cc1` (stereo not shown) [Example 6-10] are 870 nM and 22 nM.
In the same order, the values of `CCNC(=O)C(CCOC(=O)Cc1cccc(NC(=O)c2ccccc2-c2ccc(C(F)(F)F)cc2)c1)(C(=O)NCC)c1ccccc1` [Example 5-4] are 57 nM and 2.4 nM.
In the same order, the values of `CCOC(=O)C(CCOC(=O)C1CCC(NC(=O)c2ccccc2-c2ccc(C(F)(F)F)cc2)CC1)(C(=O)OCC)c1ccccc1` (stereo not shown) [Example 7-5] are 237 nM and 16.2 nM.
For the molecule `O=C(Cc1ccc(NC(=O)c2ccccc2-c2ccc(C(F)(F)F)cc2)cc1)OCC(C(=O)NC1CCCCC1)(C(=O)NC1CCCCC1)c1ccccc1` [Example 1-23], the IC50 was determined as 63 nM in assay [1] (setting [3]) and 54 nM in assay [2] (setting [4]).
In the same order, the values of `O=C(OCCC(C(=O)NCC(F)(F)F)(c1ccccc1)c1ccccc1)c1ccc(NC(=O)c2ccccc2-c2ccc(C(F)(F)F)cc2)cc1` [Example 6-8] are 630 nM and 50 nM.
For the molecule `CCOC(=O)C(CCOC(=O)Cc1cccc(NC(=O)c2ccccc2-c2ccc(C(F)(F)F)cc2)c1C)(C(=O)OCC)c1ccccc1` [Example 5, 2-[2-(2-{2-methyl-3-[(4′-trifluoromethylbiphenyl-2-carbonyl)amino]phenyl}acetoxy)ethyl]-2-phenylmalonic acid diethyl ester], the IC50 in assay [1] (setting [3]) came to 19 nM; in assay [2] (setting [4]), 3.1 nM.
For `CCOC(=O)C(COC(=O)Cc1cccc(NC(=O)c2ccccc2-c2ccc(C(F)(F)F)cc2)c1)(C(=O)OCC)c1ccccc1` [Example 5-2], the IC50 in assay [1] (setting [3]) is 875 nM; in assay [2] (setting [4]) it was 66.5 nM.
The corresponding values for `O=C(Nc1ccccc1-c1ccccc1)c1ccc(C(=O)OCCC2(C(=O)NCC(F)(F)F)c3ccccc3-c3ccccc32)cc1` [Example 6-3] are 510 nM and 5.2 nM.
The corresponding values for `CCOC(=O)C(COC(=O)Cc1ccc(NC(=O)c2ccccc2-c2ccc(C(F)(F)F)cc2)cc1C)(C(=O)OCC)c1ccccc1` [Example 1-27] are 26 nM and 7 nM.
In the same order, the values of `CCOC(=O)C(CCOC(=O)c1ccc(NC(=O)c2ccccc2-c2ccc(C(F)(F)F)cc2)cc1)(C(=O)OCC)c1ccccc1` [Example 6-14] are 87 nM and 6.3 nM.
`CCOC(=O)C(COC(=O)Cc1ccc(NC(=O)c2ccccc2-c2ccc(C(F)(F)F)cc2)cc1)(C(=O)OCC)c1ccccc1` [Example 1-9]: the IC50 in assay [1] (setting [3]) amounted to 3.2 nM; in assay [2] (setting [4]) it was 5.95 nM.
As for `CCNC(=O)C(CCCOC(=O)Cc1cccc(NC(=O)c2ccccc2-c2ccc(C(F)(F)F)cc2)c1C)(C(=O)NCC)c1ccccc1` [Example 5-10], the IC50 in assay [1] (setting [3]) came out at 300 nM; in assay [2] (setting [4]) it was 6.2 nM.
Consider `CCOC(=O)C(COC(=O)Cc1ccc(NC(=O)c2ccccc2-c2cccc(C(F)(F)F)c2)cc1)(C(=O)OCC)c1ccccc1` [Example 1-53], for which the IC50 in assay [1] (setting [3]) came to 860 nM; in assay [2] (setting [4]), 0.43 nM.
The corresponding values for `CCOC(=O)C(COC(=O)Cc1ccc(NC(=O)c2ccccc2-c2ccc(C(F)(F)F)cc2)c(C(=O)N2CCCCC2)c1)(C(=O)OCC)c1ccccc1` [Example 2-23] are 0.61 nM and 2.7 nM.
In the same order, the values of `CCOC(=O)C(COC(=O)Cc1ccc(NC(=O)c2ccccc2-c2ccc(C(F)(F)F)cc2)cc1)(C(=O)OCC)c1ccccn1` [Example 1-37] are 47 nM and 3.5 nM.
In the same order, the values of `CCOC(=O)C(CCOC(=O)Cc1cccc(NC(=O)c2ccccc2-c2ccc(C(F)(F)F)cc2)c1)(C(=O)OCC)c1ccccc1` [Example 5-3] are 86.5 nM and 6.2 nM.
In the case of `CCNC(=O)C(CCOC(=O)c1ccc(NC(=O)c2ccccc2-c2ccc(C(F)(F)F)cc2)cc1)(C(=O)NCC)c1ccccc1` [Example 6-19], the IC50 in assay [1] (setting [3]) was found to be 35 nM; in assay [2] (setting [4]) it was 3.2 nM.
As to `O=C(O)Cc1ccc(NC(=O)c2ccccc2-c2ccc(C(F)(F)F)cc2)cc1`, the IC50 was over 10000 nM in assay [1] (main metabolites of the compounds (Test Example 8), read-out: Inhibition of apo B secretion IC50) and over 1000 nM in assay [2] (main metabolites of the compounds (Test Example 8), read-out: MTP inhibition IC50).
For the molecule `CCCCNC(=O)C(COC(=O)Cc1ccc(NC(=O)c2ccccc2-c2ccc(C(F)(F)F)cc2)cc1)(C(=O)NCCCC)c1ccccc1` [Example 1-42], the results for the half-maximal inhibitory concentration (IC50) in assay [1] (setting [3]) and in assay [2] (setting [4]) were 35 nM and 4.4 nM, respectively.

(Values after patent US7625948B2, “Ester compound and medicinal use thereof” (Japan Tobacco Inc., priority 2002, dated 2009).)
